This note sets out measurements from ChEMBL document CHEMBL6120947, “Synthesis and Antiosteoporotic Characterization of Diselenyl Maleimides: Discovery of a Potent Agent for the Treatment of Osteoporosis by Targeting RANKL” (J Med Chem, 2024).

Data set [1] concerns RAW264.7. Description: Inhibition of osteoclastogenesis in RANKL-induced osteoclast differentiation in mouse RAW264.7 cells incubated for 4 days by TRAP staining based analysis. It is filed as functional, cell-based. Conditions: time 4.0 day.
The test system of data set [2] is RAW264.7. Briefly: Cytotoxicity against mouse RAW264.7 cells assessed as decrease in cell viability at 1 uM incubated for 48 hrs by MTT assay. It is filed as toxicity, cell-based. The following applies: raw264.7, 48 h.

Each structure is given as a SMILES string. Active and inactive are the calls of the source. The calls are words filed in the database; no cut-off is given here.

For the molecule `O=C1C([Se]c2ccccc2)=C([Se]c2ccccc2)C(=O)N1c1ccccc1`, the inhibition result in data set [1] is “inactive”.
On to `O=C1C([Se]c2ccccc2Cl)=C([Se]c2ccccc2Cl)C(=O)N1Cc1ccccc1`, for which, in data set [1], the inhibition result was “inactive”.
Take `COc1ccc(CN2C(=O)C([Se]c3ccccc3)=C([Se]c3ccccc3)C2=O)cc1`: the inhibition entry in data set [1] was “inactive”.
Take `COC(=O)CCN1C(=O)C([Se]c2ccccc2)=C([Se]c2ccccc2)C1=O`: the inhibition result in data set [1] was “inactive”.
Same read-out and setting: to `CC(C)(C)N1C(=O)C([Se]c2ccccc2)=C([Se]c2ccccc2)C1=O` belongs “inactive”; to `CN1C(=O)C([Se]c2ccccc2)=C([Se]c2ccccc2)C1=O`, “inactive”.
Take `N#Cc1ccc([Se]C2=C([Se]c3ccc(C#N)cc3)C(=O)N(Cc3ccccc3)C2=O)cc1`: in data set [1], the inhibition result is “inactive”.
For `O=C1C([Se]c2ccccc2)=C([Se]c2ccccc2)C(=O)N1Cc1ccc(Cl)cc1`, the inhibition entry in data set [1] is “inactive”.
On the same count and under the same terms, to `O=C1C([Se]c2cccc([N+](=O)[O-])c2)=C([Se]c2cccc([N+](=O)[O-])c2)C(=O)N1Cc1ccccc1` belongs “inactive”; to `O=C1C([Se]c2ccccc2)=C([Se]c2ccccc2)C(=O)N1c1ccc(Br)cc1`, “inactive”.
Regarding `COc1ccccc1[Se]C1=C([Se]c2ccccc2OC)C(=O)N(Cc2ccccc2)C1=O`, the inhibition result in data set [1] was “inactive”.
On the same count and under the same terms, to `O=C1C=CC(=O)N1Cc1ccccc1` belongs “inactive”; to `O=C1C([Se]c2ccccc2)=C([Se]c2ccccc2)C(=O)N1Cc1cccc(F)c1`, “inactive”; to `CC(=O)c1ccc(N2C(=O)C([Se]c3ccccc3)=C([Se]c3ccccc3)C2=O)cc1`, “Active”.
Still for that read-out and setting: to `O=C1C([Se]c2ccccc2)=C([Se]c2ccccc2)C(=O)N1Cc1ccc(F)cc1` belongs “inactive”.
On to `O=C1C([Se]c2ccc(Br)cc2)=C([Se]c2ccc(Br)cc2)C(=O)N1c1ccccc1`, for which the inhibition result in data set [1] was “inactive”. The Activity entry in data set [2] is “Toxic”.
As for `COc1ccc([Se]C2=C([Se]c3ccc(OC)cc3)C(=O)N(Cc3ccccc3)C2=O)cc1`, in data set [1], the inhibition entry was “inactive”.
`O=C1C(Sc2ccccc2)=C(Sc2ccccc2)C(=O)N1Cc1ccccc1`: the inhibition entry in data set [1] was “inactive”.
Turning to `Cc1ccc(CN2C(=O)C([Se]c3ccccc3)=C([Se]c3ccccc3)C2=O)cc1`, in data set [1], the inhibition entry is “inactive”. Also, the Activity entry in data set [2] is given as “Toxic”.
On to `O=C1C([Se]c2ccccc2Cl)=C([Se]c2ccccc2Cl)C(=O)N1c1ccccc1`, for which the inhibition entry in data set [1] is “Active”.
The same measure, in the same setting: to `N#Cc1ccc(CN2C(=O)C([Se]c3ccccc3)=C([Se]c3ccccc3)C2=O)cc1` belongs “inactive”; to `O=C1C([Se]c2ccccc2)=C([Se]c2ccccc2)C(=O)N1Cc1cccc(Br)c1`, “inactive”; to `O=C1C([Se]c2cccc(Br)c2)=C([Se]c2cccc(Br)c2)C(=O)N1Cc1ccccc1`, “inactive”.
Still for that read-out and setting: then `O=C1NC(=O)C([Se]c2ccccc2)=C1[Se]c1ccccc1`, with “Active”; and `Cc1ccccc1[Se]C1=C([Se]c2ccccc2C)C(=O)N(Cc2ccccc2)C1=O`, with “inactive”.
As to `O=C1C([Se]c2ccccc2)=C([Se]c2ccccc2)C(=O)N1Cc1ccccc1Br`, the inhibition entry in data set [1] was “inactive”. In data set [2], the Activity entry is given as “Toxic”.
`O=C1C([Se]c2cccc(Cl)c2)=C([Se]c2cccc(Cl)c2)C(=O)N1Cc1ccccc1`: the inhibition entry in data set [1] was “inactive”.
The same measure, in the same setting: then `Cc1ccccc1CN1C(=O)C([Se]c2ccccc2)=C([Se]c2ccccc2)C1=O`, with “inactive”.
Same read-out and setting: to `O=C1C([Se]c2ccc(Cl)cc2)=C([Se]c2ccc(Cl)cc2)C(=O)N1Cc1ccccc1` belongs “inactive”.
Consider `N#Cc1cccc([Se]C2=C([Se]c3cccc(C#N)c3)C(=O)N(c3ccccc3)C2=O)c1`, for which, in data set [1], the inhibition result was “inactive”. In data set [2], the Activity entry is listed as “Toxic”.
For the molecule `CCN1C(=O)C([Se]c2ccccc2)=C([Se]c2ccccc2)C1=O`, in data set [1], the inhibition entry is “inactive”.
On the same count and under the same terms, then `Cc1cccc([Se]C2=C([Se]c3cccc(C)c3)C(=O)N(c3ccccc3)C2=O)c1`, with “Active”; and `O=C1C([Se]c2cccc(F)c2)=C([Se]c2cccc(F)c2)C(=O)N1Cc1ccccc1`, with “inactive”.
Take `Cc1ccc([Se]C2=C([Se]c3ccc(C)cc3)C(=O)N(c3ccccc3)C2=O)cc1`: the inhibition result in data set [1] is “Active”. For the same molecule, the Activity result in data set [2] was “Toxic”.
With `O=C1C=C([Se]c2ccccc2)C(=O)N1Cc1ccccc1`, the inhibition entry in data set [1] was “inactive”.
For `CCc1ccc(N2C(=O)C([Se]c3ccccc3)=C([Se]c3ccccc3)C2=O)cc1`, the inhibition result in data set [1] was “Active”. For the same molecule, in data set [2], the Activity entry was “Toxic”.
Regarding `O=C1C([Se]c2ccccc2)=C([Se]c2ccccc2)C(=O)N1Cc1ccccc1Cl`, the inhibition entry in data set [1] is “inactive”.
Consider `C[Se]C1=C([Se]C)C(=O)N(Cc2ccccc2)C1=O`, for which the inhibition entry in data set [1] was “inactive”.
Consider `O=C1C([Se]c2ccccc2Br)=C([Se]c2ccccc2Br)C(=O)N1c1ccccc1`, for which, in data set [1], the inhibition entry is “inactive”. In data set [2], the Activity entry was “Toxic”.
Turning to `O=C1C([Se]c2ccccc2)=C([Se]c2ccccc2)C(=O)N1C1CCCCC1`, in data set [1], the inhibition result is “inactive”.
`CCC[Se]C1=C([Se]CCC)C(=O)N(c2ccccc2)C1=O`: in data set [1], the inhibition result is “inactive”.
With `O=C1C([Se]c2ccccc2)=C([Se]c2ccccc2)C(=O)N1c1c(Cl)cc(Cl)cc1Cl`, the inhibition entry in data set [1] was “inactive”.
With `O=C1C([Se]c2ccccc2)=C([Se]c2ccccc2)C(=O)N1Cc1cccc(Cl)c1`, the inhibition entry in data set [1] is “inactive”. The Activity entry in data set [2] was “Toxic”.
`COc1ncccc1[Se]C1=C([Se]c2cccnc2OC)C(=O)N(c2ccccc2)C1=O`: the inhibition result in data set [1] was “inactive”. Further, the Activity result in data set [2] is given as “Toxic”.
As for `Cc1cccc([Se]C2=C([Se]c3cccc(C)c3)C(=O)N(Cc3ccccc3)C2=O)c1`, the inhibition result in data set [1] is “inactive”.
On the same count and under the same terms, to `CC[Se]C1=C([Se]CC)C(=O)N(c2ccccc2)C1=O` belongs “inactive”; to `O=C1C([Se]c2ccccc2)=C([Se]c2ccccc2)C(=O)N1Cc1ccc(I)cc1`, “inactive”.
For the molecule `Cc1cccc(CN2C(=O)C([Se]c3ccccc3)=C([Se]c3ccccc3)C2=O)c1`, the inhibition result in data set [1] was “inactive”. Also, the Activity entry in data set [2] is given as “Toxic”.
